Read-outs that look alike come from different tables or passages of the source.
System: TCR 47BE7
Test: IFNγ intracellular cytokine staining of tgTCR 47BE7 CD8^+ T cells stimulated with peptide
Format: cell-based, mouse
Conditions: for EC50: tgTCR 47BE7 CD8^+ T cells, titrated peptide and αCD28, 6 hours, ICS
Description: Fig. 2 | Neoantigen-reactive CD8^+ T cells recognise cognate peptide in vitro and in vivo. a, Table detailing attributes of tumour-reactive T cell receptors (TCRs), including neoantigen-reactive (top) and tumour-associated antigen-reactive (TAA-reactive) (bottom) TCRs isolated upon vaccination. b, Neoantigen-reactive CD8^+ T cell responses were induced by vaccination; isolated tetramer^+ T cells were stimulated for 6 hours with (varying concentrations of) cognate peptide and αCD28 and subsequently analyzed via intracellular staining (ICS) flow cytometry for IFNγ expression. c, Transgenic (tg)TCR CD8^+ T cells were co-incubated with varying concentrations of cognate mutant (MT) peptide or wild type (WT) peptide (x-axis) and αCD28 for 6 hours; intracellular staining (ICS) was performed subsequently. Percentage of T cells expressing IFNγ of a parent CD3^+CD8^+ population is shown on y-axis, normalised to maximum IFNγ expression. MT peptide values are shown as clear circles, and WT as filled, black circles. […] TgTCR CD8^+ T cells expressing the indicated TCR were stimulated, as described in c, with titrated mutant (MT) or wild-type (WT) peptide and IFNγ production was measured by ICS. […] Cytokine production was measured by intracellular staining (ICS) flow cytometry (n=3/condition). […] Heatmap shown summarises the frequency of CD8^+tgTCR^+IFγ^+. f, C57BL/6 mice (n=16–26/group) were treated with Hsf2 neoantigen vaccine or PBS (mock) in accordance with timeline shown (top). tumour growth was monitored via external caliper measurement and plotted versus time since tumour inoculation (bottom). g, Tetramer staining on CD3^+ CD8^+ T cells isolated from tumour-infiltrating lymphocytes (TIL) or peripheral blood mononuclear cells (PBMCs) from mice vaccinated with each of the neoantigens listed, using same methodology as described in b. h, Schematic describing administration of ACT in vivo. […]
Fig. 4 | Structure of the pMHC-TCR ternary complex. a, Kinetics of TCR-47BE7 binding to immobilised H2-D^b/Hsf2 p.K72N as determined by biolayer interferometry. […]

Row | EC50 (n=3, read-out: functional avidity, half-maximal IFNγ production (EC50)) [µM] | EC50 (95%CI NR, read-out: half-maximal IFNγ production (EC50)) [µM] | Compound | cytokine production on a per-cell basis at saturating peptide concentrations (MT versus WT peptide)
1 | 5.61e-06 |  | CC[C@H](C)[C@H](NC(=O)[C@H](Cc1c[nH]cn1)NC(=O)[C@@H](NC(=O)[C@@H](NC(=O)[C@H](CC(N)=O)NC(=O)[C@H](CCCNC(=N)N)NC(=O)[C@H](Cc1ccccc1)NC(=O)CNC(=O)[C@@H](N)Cc1ccc(O)cc1)C(C)C)C(C)C)C(=O)O [Hsf2 p.K72N68–76] | 
2 |  | 8.7 | CC[C@H](C)[C@H](NC(=O)[C@H](Cc1c[nH]cn1)NC(=O)[C@@H](NC(=O)[C@@H](NC(=O)[C@H](CCCCN)NC(=O)[C@H](CCCNC(=N)N)NC(=O)[C@H](Cc1ccccc1)NC(=O)CNC(=O)[C@@H](N)Cc1ccc(O)cc1)C(C)C)C(C)C)C(=O)O [Hsf2_68–76] | partial agonist only
